Assay: photoluminescence quantum yield (fraction); solvent given as SMILES
[1] = in c1ccc2c(c1)c1ccccc1n2-c1ccc(-c2ccc(-n3c4ccccc4c4ccccc43)cc2)cc1

`N#CC(C#N)=Cc1nc2ccc(C#Cc3ccc(N(c4ccccc4)c4ccccc4)cc3)cc2s1` gave a photoluminescence quantum yield (in Cc1ccccc1) of 0.07.

For `N#C/C(=C\c1ccncc1)c1nc(-c2ccc(Cl)cc2)cs1`, the photoluminescence quantum yield (in CC#N) was 0.168.

`Cc1ccc(-n2c(-c3ccccc3NS(=O)(=O)c3ccc(C)cc3)nc3c4ccccc4c4ccccc4c32)cc1` showed a photoluminescence quantum yield (in Cc1ccccc1) of 0.007.

Work on `CCCCCCCCCCCCN1C(=O)c2c(c3ccc4cc(-c5ccccc5)c(OC)cc4c3c3c2ccc2cc(-c4ccccc4)c(OC)cc23)C1=O` yielded a photoluminescence quantum yield (in ClCCl) of 0.148.

Work on `F[B-]1(F)n2c(c(-c3ccccc3)c(-c3cccs3)c2-c2ccccc2)N=C2C(c3ccccc3)=C(c3cccs3)C(c3ccccc3)=[N+]21` yielded a photoluminescence quantum yield (in ClCCl) of 0.

For `O=C(c1ccc(N2c3ccccc3Oc3ccccc32)cc1)c1ccc(N2c3ccccc3Oc3ccccc32)cc1`, the photoluminescence quantum yield (in Cc1ccccc1) was 0.44 and the photoluminescence quantum yield (in c1cc(-n2c3ccccc3c3ccccc32)cc(-n2c3ccccc3c3ccccc32)c1) was 0.7.

In the case of `CCCCCCCCOc1ccc2c3cccc4c(OCCCCCCCC)ccc(c5cccc1c52)c43`, the photoluminescence quantum yield (in C1CCOC1) is reported as 0.94, the photoluminescence quantum yield (in Cc1ccccc1) is reported as 0.9 and the photoluminescence quantum yield (in ClC(Cl)(Cl)Cl) is reported as 0.08. For the same compound, the photoluminescence quantum yield (in ClC(Cl)Cl) was 0.69, the photoluminescence quantum yield (in ClCCl) was 0.81 and the photoluminescence quantum yield (in c1ccncc1) was 0.9.

With `CCN(CC)c1ccc2c(c1)oc(=O)c1c(C)nc3c(cnn3-c3ccccc3)c12` the photoluminescence quantum yield (in C1CCCCC1) was 0.931, the photoluminescence quantum yield (in CCOC(C)=O) was 0.685 and the photoluminescence quantum yield (in CN(C)C=O) was 0.37. The photoluminescence quantum yield (in CO) was 0.294 and the photoluminescence quantum yield (in ClCCl) was 0.829.

Compound `Oc1ccccc1/C=N/C1CCCCC1/N=C/c1ccccc1O` (stereo not drawn) has a photoluminescence quantum yield (in CC#N) of 0.069.

Work on `Cc1ccc2c(c1)C1(c3ccccc3-c3ccccc31)c1cc(C)ccc1N2c1ccc(-c2nc(-c3ccccc3)cc(-c3ccccc3)n2)cc1` yielded a photoluminescence quantum yield (in O=P(c1ccccc1)(c1ccccc1)c1ccc2oc3ccc(P(=O)(c4ccccc4)c4ccccc4)cc3c2c1) of 0.87.

`CN(C)c1ccc(/C=C/c2nc3ccccc3s2)cc1` gave a photoluminescence quantum yield (in C1CCCCC1) of 0.001, a photoluminescence quantum yield (in C1CCOC1) of 0.003 and a photoluminescence quantum yield (in C1COCCO1) of 0.0022. It also gave a photoluminescence quantum yield (in CC#N) of 0.0066, a photoluminescence quantum yield (in CC(C)O) of 0.0048 and a photoluminescence quantum yield (in CCCCCC) of 0.0018. The photoluminescence quantum yield (in CCCCCCC) was 0.0014, the photoluminescence quantum yield (in CCO) was 0.0045 and the photoluminescence quantum yield (in CCOC(C)=O) was 0.0053. The photoluminescence quantum yield (in CCOCC) was 0.002, the photoluminescence quantum yield (in CN(C)C=O) was 0.007 and the photoluminescence quantum yield (in CO) was 0.003. For the same compound, the photoluminescence quantum yield (in CS(C)=O) was 0.0078, the photoluminescence quantum yield (in O) was 0.0012 and the photoluminescence quantum yield (in OCC(O)CO) was 0.115.

`O=[N+]([O-])c1ccc(C#Cc2ccc3ccc(C#Cc4ccc([N+](=O)[O-])cc4)cc3c2)cc1` showed a photoluminescence quantum yield (in ClCCl) of 0.007.

For `CCOC(=O)C1=C(C(=O)OCC)C2(c3ccccc3-c3ccccc32)[C@@H](c2ccc([N+](=O)[O-])cc2)C=C2c3cc(OC)c(OC)cc3CCN21`, the photoluminescence quantum yield (in ClCCl) was 0.00075.

`Cc1cc(C)c(B(c2cc3ccc4cccc5ccc(c2)c3c45)c2c(C)cc(C)cc2C)c(C)c1` showed a photoluminescence quantum yield (in Cc1ccccc1) of 0.68.

With `CC(C)(C)NC(=O)c1ccc(-c2cc3ccccc3o2)c2ccc3c4ccccc4c4ccccc4c3c12` the photoluminescence quantum yield (in ClCCl) was 0.44.

With `CCCCn1c(-c2ccc(-c3nnc(-c4ccc5ccccc5c4)o3)cc2)nc2c3ccccc3c3ccccc3c21` the photoluminescence quantum yield (in ClCCl) was 0.75.

`C(#Cc1ncnc2ccccc12)c1ccc(N(c2ccccc2)c2ccccc2)cc1` showed a photoluminescence quantum yield (in ClCCl) of 0.03.

Compound `F[B-]1(F)OC(c2ccccc2)=Nc2sc(-c3ccccc3)n[n+]21` has a photoluminescence quantum yield (in C1CCOC1) of 0.02, a photoluminescence quantum yield (in CCO) of 0.01 and a photoluminescence quantum yield (in CCOC(C)=O) of 0.01. For the same compound, the photoluminescence quantum yield (in CN(C)C=O) was 0.01, the photoluminescence quantum yield (in Cc1ccccc1) was 0.06 and the photoluminescence quantum yield (in ClC(Cl)Cl) was 0.05. The photoluminescence quantum yield (in ClCCl) was 0.03.

For `COc1ccc(C2=CC(c3ccc4cc(N(C)C)ccc4c3)=[O+][B-](F)(F)O2)cc1`, the photoluminescence quantum yield (in C1CCOC1) was 0.52, the photoluminescence quantum yield (in CC#N) was 0.01 and the photoluminescence quantum yield (in CC(C)=O) was 0.12. It also gave a photoluminescence quantum yield (in CS(C)=O) of 0.007, a photoluminescence quantum yield (in Cc1ccccc1) of 0.95 and a photoluminescence quantum yield (in ClC(Cl)Cl) of 0.99. For the same compound, the photoluminescence quantum yield (in ClCCl) was 0.62.

For `O=P1(c2ccccc2)c2ccc(N3c4ccccc4Oc4ccccc43)cc2-c2cc(N3c4ccccc4Oc4ccccc43)ccc21`, the photoluminescence quantum yield (in Cc1ccccc1) was 0.83 and the photoluminescence quantum yield [1] was 0.8.

`COc1ccc(-c2nc(-c3ccc(C#N)cc3)[nH]c2-c2ccc(OC)cc2)cc1` showed a photoluminescence quantum yield (in CO) of 0.6.

Work on `COc1ccc(-c2cnc(C#Cc3ccccc3)o2)cc1OC` yielded a photoluminescence quantum yield (in ClCCl) of 0.49.

`Nc1ccccc1` showed a photoluminescence quantum yield (in C1CCCCC1) of 0.1.

For `CCOC(=O)c1ccccc1-c1c2ccc(=[N+](CC)CC)cc-2oc2c1oc1cc(N)ccc12`, the photoluminescence quantum yield (in CCO) was 0.501, the photoluminescence quantum yield (in ClCCl) was 0.732 and the photoluminescence quantum yield (in O) was 0.088.

For `C1=Nc2cccc3cccc(c23)N1`, the photoluminescence quantum yield (in CC#N) was 0.0013, the photoluminescence quantum yield (in CO) was 0.0005 and the photoluminescence quantum yield (in CS(C)=O) was 0.0031. For the same compound, the photoluminescence quantum yield (in Cc1ccccc1) was 0.005.

Compound `O=CC1=Cc2cocc2C=C(C=O)C1` has a photoluminescence quantum yield (in ClC(Cl)Cl) of 0.

In the case of `CC1(C)c2ccccc2N(c2ccccc2)c2ccc(-c3ccc(-c4ccc5c(c4)C(C)(C)c4ccccc4N5c4ccccc4)c4nsnc34)cc21`, the photoluminescence quantum yield [1] is reported as 0.92.

For `N#Cc1ccc(-c2nc(-c3ccccc3)c3ccccn23)cc1`, the photoluminescence quantum yield (in ClCCl) was 0.21.

Work on `COc1ccc(N(c2ccc(OC)cc2)c2cc3ccc4cc(B(c5c(C)cc(C)cc5C)c5c(C)cc(C)cc5C)cc5ccc(c2)c3c45)cc1` yielded a photoluminescence quantum yield (in C1CCOC1) of 0.44, a photoluminescence quantum yield (in CC(C)=O) of 0.21 and a photoluminescence quantum yield (in CCCCCC) of 0.22. For the same compound, the photoluminescence quantum yield (in Cc1ccccc1) was 0.27, the photoluminescence quantum yield (in ClC(Cl)Cl) was 0.23 and the photoluminescence quantum yield (in ClCCl) was 0.42.

With `CCn1c2ccccc2c2c(C#N)c3c(ccc4c3cnn4C)nc21` the photoluminescence quantum yield (in CCOC(C)=O) was 0.45.

For `[O-]c1ccccc1-c1[nH+]c2c3ccccc3c3ccccc3c2n1-c1ccccc1`, the photoluminescence quantum yield (in Cc1ccccc1) was 0.191.

`c1ccc(-c2nc(-c3cccs3)[nH]c2-c2ccccc2)cc1` gave a photoluminescence quantum yield (in CC#N) of 0.39.

Work on `CC1(C)c2ccccc2N(c2ccc(C(=O)/C=C(\O)c3ccc(N4c5ccccc5C(C)(C)c5ccccc54)cc3)cc2)c2ccccc21` yielded a photoluminescence quantum yield [1] of 0.86.

`C[Si]1(C)c2cc(-c3ccccc3)ccc2C=Cc2ccc(-c3ccccc3)cc21` gave a photoluminescence quantum yield (in ClCCl) of 0.9.

Work on `CCOC(=O)/N=c1/oc2c(OC)cccc2cc1C#N` yielded a photoluminescence quantum yield (in ClCCl) of 0.0034.

In the case of `O=c1oc2ccc(Cl)cc2cc1-c1cc2cc(Cl)ccc2o1`, the photoluminescence quantum yield (in CS(C)=O) is reported as 0.2.

`c1ccc2c(c1)c1ccccc1n2-c1ccc2cc(-c3ccc(-c4ccc(-c5cc6ccc(-n7c8ccccc8c8ccccc87)cc6o5)cc4)cc3)oc2c1` gave a photoluminescence quantum yield (in Cc1ccccc1) of 0.96 and a photoluminescence quantum yield [1] of 1.

Work on `O=C1/C(=C2\Sc3ccccc3C2=O)Sc2ccccc21` yielded a photoluminescence quantum yield (in C1COCCO1) of 0.54, a photoluminescence quantum yield (in CN(C)C=O) of 0.353 and a photoluminescence quantum yield (in CO) of 0.035. It also gave a photoluminescence quantum yield (in CS(C)=O) of 0.013 and a photoluminescence quantum yield (in c1ccccc1) of 0.72.

In the case of `N#Cc1cccc(C#N)c1-n1c2ccccc2c2cc(-c3ccc4c(c3)c3ccccc3n4-c3c(C#N)cccc3C#N)ccc21`, the photoluminescence quantum yield (in Cc1ccccc1) is reported as 0.72 and the photoluminescence quantum yield (in O=P(c1ccccc1)(c1ccccc1)c1ccccc1Oc1ccccc1P(=O)(c1ccccc1)c1ccccc1) is reported as 0.72.

In the case of `O=P1(c2ccccc2)c2ccccc2-c2sc3ccccc3c21` (stereo not drawn), the photoluminescence quantum yield (in ClCCl) is reported as 0.71.

Work on `Cc1cc(C)c(-c2c3ccccc3c3ccc4cc5c(-c6c(C)cc(C)cc6C)c6ccccc6c6ccc7cc2c3c4c7c56)c(C)c1` yielded a photoluminescence quantum yield (in ClCCl) of 0.17.

In the case of `CN(C)c1ccc(/C=C/c2ncccn2)cc1`, the photoluminescence quantum yield (in ClCCl) is reported as 0.01.

`N#Cc1ccc2c(c1)C1(c3cc(C#N)ccc3-2)c2ccccc2N(c2ccccc2)c2ccccc21` gave a photoluminescence quantum yield (in Cc1ccccc1) of 0.47.

With `N#Cc1ccc(-c2ccc3c(c2)c2cc(-c4ccc(C#N)cc4)ccc2c2c3nc(-c3ccc(-c4ccc(N(c5ccccc5)c5ccccc5)cc4)cc3)n2-c2ccccc2)cc1` the photoluminescence quantum yield (in C1CCOC1) was 0.54, the photoluminescence quantum yield (in CC#N) was 0.51 and the photoluminescence quantum yield (in CCCCCC) was 0.82. The photoluminescence quantum yield (in CCOCC) was 0.9.

Work on `O=C1c2ccc(-c3ccc(N(c4ccccc4)c4ccccc4)cc3)cc2C(=O)c2ccc(-c3ccc(N(c4ccccc4)c4ccccc4)cc3)cc21` yielded a photoluminescence quantum yield (in Cc1ccccc1) of 0.59 and a photoluminescence quantum yield [1] of 0.8.

`COc1cc(/C=C/c2nc3ccccc3s2)c(OC)cc1/C=C/c1nc(C)nc(C)n1` gave a photoluminescence quantum yield (in C1CCOC1) of 0.94, a photoluminescence quantum yield (in CC#N) of 0.86 and a photoluminescence quantum yield (in ClC(Cl)Cl) of 0.88. The photoluminescence quantum yield (in ClCCl) was 0.86.

In the case of `CCCn1c2cccc3oc4cccc5oc6cccc1c6[c+](c45)c32`, the photoluminescence quantum yield (in CC#N) is reported as 0.49, the photoluminescence quantum yield (in CO) is reported as 0.54 and the photoluminescence quantum yield (in ClCCl) is reported as 0.59. The photoluminescence quantum yield (in OCC(O)CO) was 0.47.

For `CN(C)c1ccc2nc(-c3ccc(C(=O)OC(C)(C)C)cc3)sc2c1`, the photoluminescence quantum yield (in C1CCCCC1) was 0.84, the photoluminescence quantum yield (in CC#N) was 0.81 and the photoluminescence quantum yield (in CC(C)O) was 0.84. The photoluminescence quantum yield (in CO) was 0.72, the photoluminescence quantum yield (in CS(C)=O) was 0.91 and the photoluminescence quantum yield (in ClC(Cl)Cl) was 0.87. For the same compound, the photoluminescence quantum yield (in c1ccccc1) was 0.85.

Work on `C(#Cc1ccc(C#Cc2ccc(C#Cc3ccccc3)cc2)cc1)c1ccccc1` yielded a photoluminescence quantum yield (in ClC(Cl)Cl) of 0.61.

Work on `Cc1ccc2[nH]c(-c3ccc(-c4ccc(-c5ccc(-c6nc7cc(C)ccc7[nH]6)cc5)c(F)c4)cc3)nc2c1` yielded a photoluminescence quantum yield (in CN(C)C=O) of 0.98.

For `CC(C)(C)c1cc(-c2c3cc(c(-c4cc(C(C)(C)C)cc(C(C)(C)C)c4)c4ccc([nH]4)c(-c4ccc([N+](=O)[O-])cc4)c4nc(c(-c5ccc([N+](=O)[O-])cc5)c5ccc2[nH]5)C=C4)N=C3)cc(C(C)(C)C)c1`, the photoluminescence quantum yield (in ClCCl) was 0.0263.

Work on `CCCCCCCCCCOc1cc(OCCCCCCCCCC)cc(C2=C3C(C)=CC(/C=C/c4ccc(OC)cc4)=[N+]3[B-](F)(F)n3c(/C=C/c4ccc(OC)cc4)cc(C=Cc4ccc(OC)cc4)c32)c1` yielded a photoluminescence quantum yield (in ClC(Cl)Cl) of 0.35.

With `F[B-]1(F)n2c(Cl)ccc2C(c2c(Cl)cccc2Cl)=C2C=CC(NCc3ccccc3)=[N+]21` the photoluminescence quantum yield (in CC#N) was 0.76, the photoluminescence quantum yield (in CCCCCC) was 0.82 and the photoluminescence quantum yield (in CCOC(C)=O) was 0.67. It also gave a photoluminescence quantum yield (in CO) of 0.72 and a photoluminescence quantum yield (in ClCCl) of 0.8.

For `CCN(CC)c1ccc2cc(-c3ccc(-c4ccc(-c5cc6ccc(N(CC)CC)cc6oc5=O)cc4)cc3)c(=O)oc2c1`, the photoluminescence quantum yield (in ClCCl) was 0.75.

`CCn1c2ccc(-c3ccc(-c4cccs4)s3)cc2c2cc(-c3ccc(-c4cccs4)s3)ccc21` gave a photoluminescence quantum yield (in ClCCl) of 0.168.
